The conditions of series [1]: 0.01N hydrochloric acid; cited from earlier work.
For series [2] the following is noted: result from metolazone usage; cited from earlier work.
A short description of a further series: Water solubility. Type of series: physicochemical. The settings on record: for solubility: water.
Series [3] in a line: Particle size distribution by screen analysis. Type of series: physicochemical. Conditions: for particle size d16%: 16 weight percent; for particle size d50%: 50 weight percent; for particle size d84%: 84 weight percent. How it is done:
where d is the particle diameter in μm at the indicated percentage by weight and σg is the geometric standard deviation.
The particle size distributions of drugs and excipients were determined by a screen analysis technique. A 5 gm sample of each test material was placed on the top screen of a set of six US standard screens of an Allen Bradley Sonic Sifter. The screens were pulsed for 15 minutes. The following screens were used: 80 mesh (180 μm), 100 mesh (150 μm), 140 mesh (106 μm), 200 mesh (75 μm), 270 mesh (53 μm) and 400 mesh (38 μm). The weights of the fractions retained on the screens were obtained. Particle sizes (d) at specific weight percents (16, 50, and 84) were obtained from a log probability plot of the data as described by Edmundson (Advances in Pharmaceutical Sciences, Bean, H.S. et al. Editors, Academic, London, England p. 95, 1967). These particle sizes are described as d16, d50, and d84.
The slopes of the lines from the plots were calculated to give the geometric standard deviation (σg).

Setting [4] is: listed as fine-milled metolazone.
The mark [5] stands for this setting: listed as monocrystalline metolazone.

This is an account of results in patent publication US4517179A, “Rapid dissolving, uniform drug compositions and their preparation” (priority 1984, dated 1985).

The structures appear in SMILES notation. In brackets after ≈: the same amount, converted by molar mass.

Usually solubility stands for the dissolved amount per volume that the medium holds. A lower solubility goes with little dissolved substance.

For `Cc1ccccc1N1C(=O)c2cc(S(N)(=O)=O)c(Cl)cc2NC1C` (centres unmarked) [amorphous and metastable metolazone], in series [1], the “dissolution rate relative to the stable modification (mp. 267°-270° C.)” value was “about 8 times faster”.
For `Cc1ccccc1N1C(=O)c2cc(S(N)(=O)=O)c(Cl)cc2NC1C` (centres unmarked) [metolazone, 2-methyl-3-o-tolyl-6-sulfamyl-7-chloro-1,2,3,4-tetrahydro-4-quinazolinone], the side effects entry in series [2] was “hypokalemia”. In “Water solubility” (25° C.), the water solubility entry is reported as “approximately 60.3 mcg/ml” and the solubility is around 60 µg/mL (≈ 164 µM). The solubility in the series “Water solubility” (36° C.) is around 100 µg/mL (≈ 273 µM). For the same molecule, in series [3] (setting [4]), the “particle size d16%” value turned out to be 155 μm, the “particle size d50%” value came out at 86 μm and the “particle size d84%” value came out at 48 μm. In addition, in series [3] (listed as milled metolazone), the “particle size d16%” value was found to be 94 μm, the “particle size d50%” value worked out at 56 μm and the “particle size d84%” value is 34 μm. In series [3] (setting [5]), the “particle size d16%” value worked out at 460 μm, the “particle size d50%” value stood at 190 μm and the “particle size d84%” value is listed as 83 μm.
Take `Nc1nc(N)c2nc(-c3ccccc3)c(N)nc2n1` [triamterene]: in series [3], the “particle size d16%” value worked out at 76 μm, the “particle size d50%” value is listed as 41 μm and the “particle size d84%” value is given as 17 μm.
